Test results reported in patent publication US12018011B2, “Macrocyclic compounds and compositions, and methods of preparing and using the same” (Kura Oncology, Inc., priority 2021, dated 2024).
Read-outs that look alike come from different tables or passages of the source. One block for each compound: values may come before it.

How the values were obtained:
[1] = ether bond, 13-membered ring, SOCl2, then Cs2CO3, 2 steps
[2] = ether bond, 13-membered ring, DMF
[3] = ether bond, DMF, 70.0 °C, 2 steps
[4] = biological target: T1, Recombinant human farnesyl transferase (FTase) (Homo sapiens, UniProt P49356); experiment: FTase fluorescence assay (farnesylation of dansyl-GCVLS peptide); type: biochemical; details: recombinant human FTase 2.5 nM, Dansyl-GCVLS 85 nM, FPP 30 nM, 30° C., 50 minutes
T1 construct: purchased Crelux (Martinsried, Germany)

Compound: 4^4-bromo-2^2-chloro-3-(1-methyl-1H-imidazol-5-yl)-6-oxa-2(4,6)-quinolina-1,4(1,3)-dibenzenacyclohexaphan-3-ol
- ring closure, crude yield ([1]; DMF, 116.2 mM, 70.0 °C): 84%

Compound: 4^4-bromo-2^2-methoxy-3-(1-methyl-1H-imidazol-5-yl)-6-oxa-2(4,6)-quinolina-1,4(1,3)-dibenzenacyclohexaphan-3-ol
- ring closure, crude yield ([1]; DMF, 122.7 mM, 70.0 °C): 84.8%

Compound: 4^4-bromo-3-(1-methyl-1H-imidazol-5-yl)-6-oxa-2(1,7)-isoquinolina-1,4(1,3)-dibenzenacyclohexaphan-3-ol
- ring closure, isolated yield ([2]; Cs2CO3, 77.0 mM, 50.0 °C): 60.6%

Compound: 4^4-chloro-2^2-methoxy-3-(1-methyl-1H-imidazol-5-yl)-6-oxa-2(4,6)-quinolina-1,4(1,3)-dibenzenacyclohexaphan-3-ol
- ring closure, crude yield ([1]; DMF/THF 1:3, 9.96 mM, 105.0 °C): 90.7%

Compound: 4^4-chloro-2^2-methoxy-3-(4-methyl-4H-1,2,4-triazol-3-yl)-6-oxa-2(4,6)-quinolina-1,4(1,3)-dibenzenacyclohexaphan-3-ol
- ring closure, isolated yield ([2]; K2CO3, 29.8 mM, 55.0 °C): 69.1%

Compound: 4^6-chloro-2^2-methoxy-3-(1-methyl-1H-imidazol-5-yl)-6-oxa-2(4,6)-quinolina-4(3,5)-pyridina-1(1,3)-benzenacyclohexaphan-3-ol
- ring closure, crude yield ([1]; DMF, 64.5 mM, 70.0 °C): 95.6%

- IC50 [4]: > 100 nM
Compound: COc1cc2c3cc(ccc3n1)C(O)(c1cncn1C)c1cnc(Cl)c(c1)COc1cccc-2c1 (stereo not shown) [Compound 59, 4^6-chloro-2^2-methoxy-3-(1-methyl-1H-imidazol-5-yl)-6-oxa-2(4,6)-quinolina-4(3,5)-pyridina-1(1,3)-benzenacyclohexaphan-3-ol]
- ring closure, yield of all isomers ([3]; from COc1cc(-c2cccc(O)c2)c2cc(C(O)(c3cnc(Cl)c(CO)c3)c3cncn3C)ccc2n1, SOCl2 then Cs2CO3, 64.5 mM, 1.0 h): 95.6%

- IC50 [4]: > 100 nM
Compound: Cn1cncc1C1(O)c2ccc(Br)c(c2)COc2cccc(c2)-c2cc(Cl)nc3ccc1cc23 (stereo not shown) [Compound 71, 4^4-bromo-2^2-chloro-3-(1-methyl-1H-imidazol-5-yl)-6-oxa-2(4,6)-quinolina-1,4(1,3)-dibenzenacyclohexaphan-3-ol]
- ring closure, yield of all isomers ([3]; from Cn1cncc1C(O)(c1ccc(Br)c(CO)c1)c1ccc2nc(Cl)cc(-c3cccc(O)c3)c2c1, Cs2CO3, 116.2 mM, 2.0 h): 84%
